“And” between values parts separate entries of the source, which are not always exact repeats. Equal values may be shown once.

Experiment [1] concerns the target T1, α-GAL (Homo sapiens, UniProt P06280).
T1 sequence (P06280 32-429): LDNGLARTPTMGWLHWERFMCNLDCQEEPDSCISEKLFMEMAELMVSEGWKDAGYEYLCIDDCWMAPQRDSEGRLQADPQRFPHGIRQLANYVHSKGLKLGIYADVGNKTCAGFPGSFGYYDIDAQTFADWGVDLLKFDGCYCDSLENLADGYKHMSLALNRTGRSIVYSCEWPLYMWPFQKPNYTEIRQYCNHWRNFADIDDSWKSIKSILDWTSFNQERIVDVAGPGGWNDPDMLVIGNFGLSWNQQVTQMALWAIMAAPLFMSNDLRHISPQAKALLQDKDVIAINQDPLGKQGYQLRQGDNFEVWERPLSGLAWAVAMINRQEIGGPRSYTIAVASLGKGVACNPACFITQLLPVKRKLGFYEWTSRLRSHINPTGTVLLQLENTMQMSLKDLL
Briefly: T cell-based α-GAL enhancement assay, T cells from normal individuals cultured with DGJ. More on the design: endogenous in cells; host or cells: T cell cultures from blood of normal control individuals. The settings on record: for Activity (% Normal) (+DGJ): 20 μM DGJ; for Enhancement ratio: +DGJ vs −DGJ. The method, then:
2. WBC Separation: • Patient blood was drawn into an 8 mL CPT tube, which has been stored at 18-25° C. • immediately after collecting blood, it was mixed by inverting the tube 8-10 times. • The tube was centrifuged at room temperature (18-25° C.) for 30 minutes at 1800× g using a tabletop centrifuge equipped with swinging buckets. Universal precautions for handling blood specimens were taken, including the use of a closed canister type bucket for centrifugation. • Following centrifugation, several layers of the blood composition become distinguishable which represented separation of the red blood cells from the plasma and white cells.
3. Washing of WBC's • Half of the plasma layer was aspirated by vacuum and discarded without disturbing the white cell layer. All of the remaining fluid, including the cell layer, was transferred with a Pasteur pipette to a 15 mL conical screw-cap Falcon centrifuge tube. • PBS was added to bring the volume up to 14 mL and the tube was mixed by inversion. • The tube was centrifuged at room temperature for 20-30 minutes at 1300 rpm (approximately 320× g). • Immediately after centrifugation, as much supernatant as possible was aspirated by vacuum and discarded without disturbing the cell pellet.
5. Optional: Freezing WBC Pellet • The cell pellet was mixed in the remaining liquid by tapping a finger against the bottom of the tube. • 0.5 to 1 mL of PBS was added to the re-suspended cells and one half of the pellet was transferred (using a sterile tip on a micropipette) to a labeled 1.8 mL cryovial. • The cryovial was centrifuged at room temperature for 5 minutes at 5000 rpm (approximately 2250 g) in a microcentrifuge. • All of the supernatant liquid was discarded using a Pasteur pipette without disturbing the cell pellet. • 0.5 to 1 ml of RPMI 1640 containing 10% FBS and 5% DMSO was then added to the tube and mixed a pipette and frozen overnight at −80 C prior to transferring to a liquid nitrogen cell storage freezer. B. Establishment of T-Cell Cultures from Blood Specimens • 1. The washed cells were re-suspended in 3.0 ml of RPMI 1640 medium with 10% Cosmic Calf Serum (CCS, Hyclone Laboratories, Logan, Utah), about 25 ng/ml IL-2 (PreProTECH, Rocky Hill, N.J.) and the manufacturer's recommended concentration of PHA (Life Technology, Gaithersburg, Md.). The cells were then transferred to an upright an upright […] culture flask and incubated for 3-4 days at 37° C., 5% CO2. • 2. The cell culture was diluted to 5 ml with growth medium (RPMI-1640, 10% FBS, 25 ng/ml IL-2). The cell concentration was then adjusted to about 5×10^5 cells/ml in the flask. • 3. The growth of the cells was monitored daily. Cells were maintained between 5×10^5 and 1.5×10^6 cells in an upright flask. […] Senescence of the culture will be apparent by a dramatic reduction in growth rate. Culture time may possibly be extended by re-stimulation with PHA. • 4. Optional-Freezing T-lymphocytes: T-lymphocytes may be frozen at 3×10^6 cells/vial using RPMI1640 medium containing 20% FCS and 7.5% DMSO. On day 5, 6, or 7 cryopreserve as many vials as possible at 3×10^6 cells/vial. This is sufficient to thaw 5 mLs of culture at 5×10^5 viable cells/ml. When establishing T-cell cultures, the following should be noted. • Fresh blood specimens should be collected in heparinized tubes (or tubes containing an appropriate anti-coagulant) and used the same day. ACD tubes should be used if specimens cannot be processed within 24 hours. (Clin Chem 1988 January; 34(1):110-3; Clin Diagn Lab Immunol. 1998 November; 5(6):804-7.). • Eight-10 mLs of blood is usually sufficient to establish 20 million cells by day 5. • T lymphocytes are the specific targets of the HIV virus. Use extreme care if the HIV status of the patient is unknown. • Each new lot of IL-2 should be tested to determine the optimal concentration.

Experiment [2] deals with T1, α-GAL. Briefly: Western blot of α-GAL protein level in T cells cultured with DGJ. It counts as cell-based. More on the design: endogenous in cells; host or cells: T cells of Fabry patients and normal controls. The settings on record: normal control cells, treatment with DGJ. The method, then:
The level of α-GAL protein measured by Western blot. Protein was determined using a Micro BCA Protein Assay kit (Pierce, Rockford, Ill.) with bovine serum albumin (BSA) as a standard. Absorbance at 562 nm was measured using the Molecular Devices VersaMax absorbance reader in a 96-well format. For gel electrophoresis prior to western blotting, proteins were separated using Novex Tris-glycine native or SDS-PAGE in 8-16% gradient gels (Invitrogen). Western blots were developed using rabbit polyclonal antibody against α-GAL was performed as described previously (Park et al., Proc Natl Acad Sci USA. 2003; 100: 3450-54).
(In western blotting, separated proteins are transferred to a membrane and probed.)

Where [3] appears, read: T cells of single normal individuals (specimens 58-81).

`OC[C@H]1NC[C@H](O)[C@@H](O)[C@H]1O` [DGJ, 1-deoxygalactonojirimycin]: the “normal α-GAL activity” value at α-GAL [1] (T cells from normal controls, 200 μM DGJ (inhibition)) is “approximately 40 % of the average of untreated normal controls”. Besides, the “dosage effect on α-GAL activity” value on α-GAL [1] (T cells from normal controls, DGJ between 2 nM and 20 μM) is given as “α-GAL activity increased”. In addition, the “Activity (% Normal) (+DGJ)” value on α-GAL [1] (setting [3]) was 161 % Normal and 100 % Normal and 120 % Normal and 104 % Normal and 150 % Normal and 165 % Normal and 145 % Normal and 97 % Normal and 141 % Normal and 198 % Normal and 315 % Normal and 140 % Normal and 138 % Normal and 131 % Normal and 99 % Normal and 126 % Normal and 108 % Normal and 116 % Normal and 118 % Normal and 107 % Normal and 117 % Normal and 111 % Normal; on α-GAL [1] (T cells, All NL (normal individuals, M or F)) it was 128 % Normal; on α-GAL [1] (T cells, All NL Female), 117 % Normal; at α-GAL [1] (T cells, All NL Male), 124 % Normal. Besides, the Enhancement ratio was 1.3 (6×) and 1.1 (3×) and 1.2 (5×) and 1.5 (2×) and 1.4 (4×) and 1.0 (2×) and 1.8 and 0.8 on α-GAL [1] (setting [3]); 1.3 at α-GAL [1] (T cells, All NL (M or F)); 1.4 at α-GAL [1] (T cells, All NL Female); 1.2 at α-GAL [1] (T cells, All NL Male). The “Western blot band intensity of α-GAL protein” value on α-GAL [2] was “considerably increased”.

For the origin of these results see patent publication US11241422B2, “Methods for treatment of Fabry disease” (Amicus Therapeutics, Inc., priority 2006, dated 2022).
